Experiments:
PLC/PRF/5 cells = assay: Clonogenic assay, PLC/PRF/5; assay type: cell-based; conditions: 6 h exposure, 10 days culture, 5-FU 200 μM, Sorafenib 20 μM, CuCl2 1 μM, disulfiram-PLGA 200 nM
Experimental: (§1) […] The cells were collected and sub-cultured in 6-well plates containing drug-free medium at a cell density of 10^3/well. After 10 days culture, the clonogenic cells were determined by counting the colonies containing at least 50 cells.
(§2) The treated cells were collected and sub-cultured in 6-well plates containing drug-free medium at a cell density of 500 cells/well for another 10 days.

Huh7 cells = assay: Clonogenic assay, Huh7; assay type: cell-based; conditions: 6 h exposure, 10 days culture, 5-FU 200 μM, Sorafenib 20 μM, CuCl2 1 μM, disulfiram-PLGA 200 nM
Experimental: as §1, §2

PLC/PRF/5 xenografts = assay: Liver cancer xenograft experiments; assay type: in vivo, BALB/c Nu/Nu athymic nude mice; conditions: copper alone (CuGlu 6 mg/kg p.o.)
Experimental: PLC/PRF/5 cells (5×10^5) were subcutaneously injected at one front flank of the mice. When the tumor volume reached ˜200 mm^3, the tumor bearing mice were randomly subdivided into 6 groups (8 mice/group) e.g. control, CuGlu 6 mg/kg p.o., empty nanoparticles+CuGlu 6 mg/kg p.o., PLGA-disulfiram 2.5 mg/kg i.v.+CuGlu 6 mg/kg p.o., PLGA-disulfiram 5 mg/kg i.v.+CuGlu 6 mg/kg p.o., PLGA-disulfiram 10 mg/kg i.v.+CuGlu 6 mg/kg p.o. The drugs were administered 3 times/week for successive 3 weeks.
Five-week-old female BALB/c Nu/Nu athymic nude mice (Biotechology & Cell Biology Shanghai, China) were housed under pathogen-free conditions. PLC/PRF/5 cells (5×10^5) were subcutaneously injected at one front flank of the mice. When the tumour volume (V) reached ˜200 mm^3, the tumour bearing mice were randomly subdivided into 6 groups (8 mice/group) and treated 3 times/week e.g. control; copper gluconate (CuGlu) 6 mg/kg p.o., empty nanoparticles+CuGlu 6 mg/kg p.o., PLGA-disulfiram 2.5 mg/kg i.v.+CuGlu 6 mg/kg p.o.; PLGA-disulfiram 5 mg/kg i.v.+CuGlu 6 mg/kg p.o., PLGA-disulfiram 10 mg/kg i.v.+CuGlu 6 mg/kg p.o. The tumour volume was calculated by the following formula: V=(L×W^2)×0.5, where L is the length and W is the width of the tumour. The xenograft size was observed and recorded trice per week for 3 weeks. The animals were sacrificed after three weeks. […]

PLC/PRF/5 HCC cell line = assay: MTT cytotoxicity assay and CI-isobologram, PLC/PRF/5; assay type: cell-based; conditions: for IC50: Homo sapiens, PLC/PRF/5, 72 h, single drug; for combinational effect with Disulfiram-PLGA (CI-isobologram): PLC/PRF/5, Cu 1 μM; for sensitivity of cells at hypoxic condition: PLC/PRF/5, hypoxic versus normoxic culture, 72 h
Experimental: (§3) The PLC/PRF/5 and Huh7 HCC cell lines were cultured in DMEM (Lonza, Wokingham, UK) supplemented with 10% FCS, 50 units/ml penicillin, 50 μg/ml streptomycin.
(§4) The IC50s from single and two-drug-treated cells were detected. […] The combination index (CI) was determined by mutually exclusive equations.

Huh7 HCC cell line = assay: MTT cytotoxicity assay and CI-isobologram, Huh7; assay type: cell-based; conditions: for IC50: Homo sapiens, Huh-7, Huh7, 72 h, single drug; for combinational effect with Disulfiram-PLGA (CI-isobologram): Huh7, Cu 1 μM; for sensitivity of cells at hypoxic condition: Huh7, hypoxic versus normoxic culture, 72 h
Experimental: as §3, §4

[1] = cited from earlier work
[2] = assay type: in vitro ADME; conditions: horse, 100 μg/ml
Experimental: The eppendoff tubes were collected and protein was precipitated by the addition of 300 μl of absolute methanol at different time intervals. The supernatant was then subjected to HPLC measurement.
The free disulfiram was rapidly degraded in the serum to undetectable levels within 30 seconds (FIG. 1E). In contrast, disulfiram commenced its release from PLGA nanoparticles at 2 min which was equivalent to 34.23±3.38% of the initial drug loading and peaked in 4 min at 51.27±5.98% of the initial drug loading. The controlled release lasted for at least 24 hours. […] Importantly, after 4 hours incubation, the disulfiram concentration in the serum still remained at ˜90 μM which is markedly higher than the IC50s of disulfiram in a wide range of cancer types (˜50-500 nM).

[3] = tested on: a wide range of cancer types; conditions: read-out: IC50s of disulfiram; cited from earlier work

Row | Compound | colony numbers versus control (PLC/PRF/5 cells) | colony numbers versus control (Huh7 cells) | effect on tumor growth (PLC/PRF/5 xenografts) | IC50 (PLC/PRF/5 HCC cell line) [µM] | combinational effect with Disulfiram-PLGA (CI-isobologram) (PLC/PRF/5 HCC cell line) | sensitivity of cells at hypoxic condition (PLC/PRF/5 HCC cell line) | IC50 (Huh7 HCC cell line) [µM] | combinational effect with Disulfiram-PLGA (CI-isobologram) (Huh7 HCC cell line) | sensitivity of cells at hypoxic condition (Huh7 HCC cell line) | previously published half-life data [1] [min] | time to degradation to undetectable levels in serum [2] [s] | IC50 [3] [µM]
1 | [Cl][Cu][Cl] [CuCl2, copper(II) chloride] | no significant difference | no significant difference | – | – | – | – | – | – | – | – | – | –
2 | copper gluconate | – | – | no effect | – | – | – | – | – | – | – | – | –
3 | CNC(=O)c1cc(Oc2ccc(NC(=O)Nc3ccc(Cl)c(C(F)(F)F)c3)cc2)ccn1 [Sorafenib] | no significant difference | no significant difference | – | 30.9 | very significant synergistic | significantly resistant | 22.9 | very significant synergistic | significantly resistant | – | – | –
4 | CCN(CC)C(=S)SSC(=S)N(CC)CC [free disulfiram, Disulfiram] | – | – | – | – | – | – | – | – | – | 4 | ≤ 30 | 0.05 to 0.5
5 | O=c1[nH]cc(F)c(=O)[nH]1 [5-FU, 5-fluorouracil] | no significant difference | no significant difference | – | 123 | very significant synergistic | significantly resistant | 103 | very significant synergistic | significantly resistant | – | – | –
